Measured values from patent US10221163B2 (priority 2015, dated 2019).
Like-named read-outs stand apart in the source and are kept apart here.

Tests used:
NDM-1 = NDM-1 (Klebsiella pneumoniae, UniProt C7C422); experiment: biochemical; type: biochemical; conditions: fluorescence assay, CCF2-FA substrate, 1 pM enzyme, 2 hours at 25° C.; read-out: NDM-1 IC50
Experimental: (§1) Enzyme Activity: Determination of IC50
(§2) The Class B enzyme activities were measured in the presence of the test inhibitor in a fluorescence assay against a commercially available substrate consisting of a cephalosporin core linking 7-hydroxycoumarin to fluorescein (CCF2-FA). […] In a 384-well microplate, the test inhibitor was incubated with the metallo-β-lactamase enzyme and the substrate for 2 hours at 25° C. […] The IC50 value was determined from semi-logarithmic plots of enzyme inhibition versus inhibitor concentration, with a curve generated using a 4-parameter fit.

VIM-1 = VIM-1 (Pseudomonas aeruginosa (strain ATCC 15692 / DSM 22644 / CIP 104116 / JCM 14847 / LMG 12228 / 1C / PRS 101 / PAO1), UniProt A0A0F7KYQ8); experiment: biochemical; conditions: CCF2-FA substrate, 30 pM enzyme, 2 hours at 25° C.
Experimental: as §1, §2

[1] = tested on: Escherichia coli expressing NDM-1 (CLB30005, CLB30016); type: cell-based; conditions: with imipenem 1 μg/ml; for Escherichia coli expressing NDM-1 (CLB30016) MITC95: 95% inhibition of bacterial growth; for Escherichia coli MITC95: NDM-1 strain, 95% inhibition of growth
Experimental: (§3) Antibiotic Potentiation Activity: Determination of Synergistic Concentration
(§4) The bacterial strains tested included the clinical strains Escherichia coli expressing NDM-1 (CLB30005, CLB30016), Serratia marcescens expressing IMP-1 (CL5741), and Klebsiella pneumoniae expressing VIM-1 (IHMA599644). Inhibitor activity was measured in the presence and absence of imipenem in a 384-well microplate.
(§5) The clinical strains CLB30016, CL5741 and IHMA599644 were grown on trypticase soy agar containing 5% sheep's blood. The bacteria on agar plates were incubated at 35° C. with humidity overnight. The following day, individual colonies from each clinical strain were picked and resuspended in 5 ml saline to attain an OD600 of […], for CLB30016, CL5741 and IHMA599644, respectively. These were further diluted 1:100 into 1.1×CAMHB and used to inoculate the test wells as described below.
(§6) Imipenem in 10 mM 3-(N-morpholino)propanesulfonic acid (MOPS, pH 7) was stored in single use aliquots at −80° C. […] On the day of the assay, 4 μl of antibiotic was added to 45 ul of bacteria followed by 1 μl of test compound and mixed by pipetting and with an orbital shaker. The concentration of antibiotic used in the assay was 1 μg/ml. Microplates were covered and incubated at 35° C. for 22 hours to 24 hours. At the end of the incubation, absorbance was determined using a spectrophotometer.

[2] = tested on: Klebsiella pneumoniae expressing VIM-1 (IHMA599644); type: cell-based; conditions: for Klebsiella pneumoniae expressing VIM-1 (IHMA599644) MITC95: with imipenem 1 μg/ml, 95% inhibition of bacterial growth; for Klebsiella pneumoniae MITC95: VIM-1 strain IHMA599644, with imipenem 1 μg/ml, 95% inhibition of growth
Experimental: as §3, §4, §5, §6

[3] = tested on: Serratia marcescens expressing IMP-1 (CL5741); type: cell-based; conditions: for Serratia marcescens expressing IMP-1 (CL5741) MITC95: with imipenem 1 μg/ml, 95% inhibition of bacterial growth; for Serratia marcescens MITC95: IMP-1 strain CL5741, with imipenem 1 μg/ml, 95% inhibition of growth
Experimental: as §3, §4, §5, §6

[4] = tested on: Pseudomonas aeruginosa efflux+ (MB9798), IMP-1; type: cell-based; set-up: Concentration of metallo-β-lactamase inhibitor which restores susceptibility of efflux + (MB9798) strain to imipenem: unit not given here; conditions: C, D serine β-lactamase inhibitor closely related to relebactam; for P. aeruginosa expressing IMP-1, efflux + (MB9798) MITC95: concentration restoring susceptibility to imipenem at 2 μg/mL in the presence of a class A; for Concentration of metallo-β-lactamase inhibitor which restores susceptibility of efflux + (MB9798) strain to imipenem: imipenem at 2 μg/mL, in the presence of a class A
Excerpt: (§7) The strain background was Pseudomonas aeruginosa PAO1.
(§8) The strain set was then used as a pair to determine the effect of metallo-β-lactamase inhibitors of Formula I on the MIC of imipenem and/or ceftazidime. A fixed concentration of antibiotic was included in standard microbroth MIC tests, usually at the CLSI (Clinical and Laboratory Standards Institute) breakpoint concentration. A fixed amount of a class A/C beta-lactamase inhibitor was also included to inhibit the resident Pseudomonas AmpC enzyme. A serial titration of the metallo-β-lactamase inhibitor was included and the concentration of metallo-β-lactamase inhibitor which restores susceptibility of the strain to the included antibiotic was recorded. That concentration of metallo-β-lactamase inhibitor was then compared between the two strains to determine the fold difference between the efflux+ (MB9798) and efflux− (MB9799) strains. This was taken as an indication of the extent to which the MBLi is subject to efflux.

[5] = tested on: Pseudomonas aeruginosa efflux− (MB9799), IMP-1; type: cell-based; conditions: C, D serine β-lactamase inhibitor closely related to relebactam; for P. aeruginosa expressing IMP-1, efflux − (MB9799) MITC95: concentration restoring susceptibility to imipenem at 2 μg/mL in the presence of a class A; for Concentration of metallo-β-lactamase inhibitor which restores susceptibility of efflux − (MB9799) strain to imipenem: imipenem at 2 μg/mL, in the presence of a class A
Excerpt: as §7, §8

IMP-1 = IMP-1 (Serratia marcescens, UniProt P52699); experiment: biochemical; type: biochemical; conditions: fluorescence assay, CCF2-FA substrate, 2 pM enzyme, 2 hours at 25° C.; read-out: IMP-1 IC50
IMP-1, sequence (P52699 whole entry, looked up, species assumed): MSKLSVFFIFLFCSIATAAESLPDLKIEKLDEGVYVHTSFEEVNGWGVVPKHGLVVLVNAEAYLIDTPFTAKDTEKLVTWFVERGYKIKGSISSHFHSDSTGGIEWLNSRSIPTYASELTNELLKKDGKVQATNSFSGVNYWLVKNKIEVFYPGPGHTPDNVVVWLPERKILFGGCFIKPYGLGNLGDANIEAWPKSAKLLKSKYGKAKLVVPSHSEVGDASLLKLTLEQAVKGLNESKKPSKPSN
Experimental: as §1, §2

[6] = fluorescence assay, read-out: VIM-1 IC50

NDM-1, sequence (C7C422 whole entry, looked up, species assumed): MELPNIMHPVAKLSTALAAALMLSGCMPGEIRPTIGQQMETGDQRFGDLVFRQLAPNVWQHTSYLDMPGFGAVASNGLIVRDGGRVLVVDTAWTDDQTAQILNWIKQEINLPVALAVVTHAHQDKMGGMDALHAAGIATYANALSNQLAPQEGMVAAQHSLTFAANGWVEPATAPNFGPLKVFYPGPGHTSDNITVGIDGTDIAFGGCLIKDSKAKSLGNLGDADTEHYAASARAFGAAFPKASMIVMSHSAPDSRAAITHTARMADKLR

Compound | IC50 (NDM-1) | IC50 (VIM-1; VIM-1 IC50, fluorescence assay) | Escherichia coli expressing NDM-1 (CLB30016) MITC95 [1] | Klebsiella pneumoniae expressing VIM-1 (IHMA599644) MITC95 [2] | Serratia marcescens expressing IMP-1 (CL5741) MITC95 [3] | P. aeruginosa expressing IMP-1, efflux + (MB9798) MITC95 [4] | P. aeruginosa expressing IMP-1, efflux − (MB9799) MITC95 [5] | IC50 (VIM-1; [6]) | Escherichia coli MITC95 [1] | Klebsiella pneumoniae MITC95 [2] | Serratia marcescens MITC95 [3] | IC50 (IMP-1) | Concentration of metallo-β-lactamase inhibitor which restores susceptibility of efflux + (MB9798) strain to imipenem [4] | Concentration of metallo-β-lactamase inhibitor which restores susceptibility of efflux − (MB9799) strain to imipenem [5]
Nc1nc2c(-c3ccc(S(=O)(=O)N[C@H]4C[C@H](N)C4)c(S(N)(=O)=O)c3-c3nnn[nH]3)cccc2s1.O=C(O)C(F)(F)F [Example 98, (1r,3r)-3-(4-(2-aminobenzo[d]thiazol-4-yl)-2-sulfamoyl-3-(1H-tetrazol-5-yl)phenylsulfonamido)cyclobutanaminium 2,2,2-trifluoroacetate] | 0.0365 nM | 0.169 nM | 1.823 µM | 2.604 µM | 1.563 µM | 0.7813 µM | 1.042 µM | – | – | – | – | – | – | –
Nc1nc2c(-c3ccc(S(=O)(=O)N4CC5C(N)C5C4)c(S(N)(=O)=O)c3-c3nnn[nH]3)cccc2s1.O=C(O)C(F)(F)F [Example 113, (1R,5S,6s)-3-((4-(2-aminobenzo[d]thiazol-4-yl)-2-sulfamoyl-3-(1H-tetrazol-5-yl)phenyl)sulfonyl)-3-azabicyclo[3.1.0]hexan-6-aminium 2,2,2-trifluoroacetate] | 0.646 nM | – | 1.563 µM | 3.125 µM | 3.125 µM | 1.563 µM | 1.563 µM | 0.773 nM | – | – | – | – | – | –
CC(C)(CN)NS(=O)(=O)c1ccc(-c2cccc3sc(N)nc23)c(-c2nnn[nH]2)c1S(N)(=O)=O.O=CO [Example 117, 2-(4-(2-aminobenzo[d]thiazol-4-yl)-2-sulfamoyl-3-(1H-tetrazol-5-yl)phenylsulfonamido)-2-methylpropan-1-aminium formate] | 0.0126 nM | – | 6.25 µM | 3.125 µM | 3.125 µM | 1.563 µM | 1.563 µM | 0.183 nM | – | – | – | – | – | –
Nc1nc2c(-c3ccc(S(=O)(=O)NCC(N)C(F)F)c(S(N)(=O)=O)c3-c3nnn[nH]3)cccc2s1.O=CO (stereo not shown) [Example 118, 3-(4-(2-aminobenzo[d]thiazol-4-yl)-2-sulfamoyl-3-(1H-tetrazol-5-yl)phenylsulfonamido)-1,1-difluoropropan-2-aminium formate] | 0.026 nM | 0.289 nM | 25 µM | 12.5 µM | 6.25 µM | 12.5 µM | 3.125 µM | – | – | – | – | – | – | –
Nc1nc2c(-c3ccc(S(=O)(=O)NC[C@@H]4CCCN4)c(S(N)(=O)=O)c3-c3nnn[nH]3)cccc2s1.O=CO [Example 125, (S)-2-((4-(2-aminobenzo[d]thiazol-4-yl)-2-sulfamoyl-3-(1H-tetrazol-5-yl)phenylsulfonamido)methyl)pyrrolidin-1-ium formate] | 0.0465 nM | – | 1.563 µM | 3.125 µM | 1.563 µM | 0.7813 µM | 1.563 µM | 0.196 nM | – | – | – | – | – | –
Nc1nc2c(-c3ccc(S(=O)(=O)NC[C@H]4CCCN4)c(S(N)(=O)=O)c3-c3nnn[nH]3)cccc2s1.O=CO [Example 126, (R)-2-((4-(2-aminobenzo[d]thiazol-4-yl)-2-sulfamoyl-3-(1H-tetrazol-5-yl)phenylsulfonamido)methyl)pyrrolidin-1-ium formate] | 0.0569 nM | – | 1.563 µM | 3.125 µM | 1.563 µM | 0.7813 µM | 1.563 µM | 0.18 nM | – | – | – | – | – | –
NCCNS(=O)(=O)c1ccc(-c2cccc3ncccc23)c(-c2nn[nH]n2)c1S(N)(=O)=O [Example 360, N1-(2-aminoethyl)-4-(quinolin-5-yl)-3-(2H-tetrazol-5-yl)benzene-1,2-disulfonamide] | – | 0.135 nM | – | – | – | 1.563 µM | 1.563 µM | – | 1.563 µM | 3.125 µM | 1.563 µM | – | – | –
CCOC(=O)c1sc(N)nc1-c1cccc(-c2ccc(S(=O)(=O)NC(CN)CN)c(S(N)(=O)=O)c2-c2nnn[nH]2)c1 [Example 431] | 0.0739 nM | – | – | – | – | – | – | – | 3.125 µM | 6.25 µM | 3.125 µM | 0.133 nM | 12.5 | 1.563
NCCNS(=O)(=O)c1ccc(-c2cccc3[nH]c(C4CNC4)nc23)c(-c2nn[nH]n2)c1S(N)(=O)=O [Example 443, N1-(2-aminoethyl)-4-(2-(azetidin-3-yl)-1H-benzo[d]imidazol-4-yl)-3-(2H-tetrazol-5-yl)benzene-1,2-disulfonamide] | 0.0814 nM | – | – | – | – | – | – | – | 0.7813 µM | 1.172 µM | 1.563 µM | 0.79 nM | 0.7813 | 0.7813
Nc1ccc(-c2ccc(S(=O)(=O)N[C@@H]3CCCNC3)c(S(N)(=O)=O)c2-c2nn[nH]n2)cn1 [Example 490, (R)-4-(6-aminopyridin-3-yl)-N1-(piperidin-3-yl)-3-(2H-tetrazol-5-yl)benzene-1,2-disulfonamide] | 0.0439 nM | – | – | – | – | – | – | – | 0.7813 µM | 3.125 µM | 1.563 µM | 0.176 nM | 1.563 | 1.563
Nc1ccc(-c2ccc(S(=O)(=O)N[C@H]3CCCNC3)c(S(N)(=O)=O)c2-c2nn[nH]n2)cn1 [Example 494, (S)-4-(6-aminopyridin-3-yl)-N1-(piperidin-3-yl)-3-(2H-tetrazol-5-yl)benzene-1,2-disulfonamide] | 0.276 nM | – | – | – | – | – | – | – | 0.7813 µM | 3.125 µM | 1.563 µM | 0.808 nM | 3.125 | 1.563
